Source: paper PMC8078777 (PLoS Pathogens, 2021)
Several values for one entry are separate records, joined by “and”; a condition that tells them apart may be missing. Identical values can stand only once.

Assays:
NLPPp [1] = target: T1, NLPPp (Phytophthora nicotianae, UniProt Q9AT28); experiment: Tobacco leaf infiltration assay, NLPPp-induced necrosis; assay type: in vivo, Phytophthora parasitica; conditions: 400 nM NLPPp with different concentrations of compound, tobacco leaves, 24 h
T1 construct: made in house; host or cells: Pichia pastoris
T1 sequence (Q9AT28 20-237): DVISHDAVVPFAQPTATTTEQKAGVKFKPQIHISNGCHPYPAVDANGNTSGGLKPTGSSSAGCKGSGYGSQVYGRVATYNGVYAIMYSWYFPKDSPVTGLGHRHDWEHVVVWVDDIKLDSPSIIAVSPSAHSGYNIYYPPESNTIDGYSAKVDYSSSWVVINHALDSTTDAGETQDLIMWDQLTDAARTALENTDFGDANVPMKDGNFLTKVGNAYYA

NLPPp [2] = target: T1, NLPPp; experiment: Surface plasmon resonance binding to immobilized NLPPp; set-up: species or system Phytophthora parasitica; conditions: for Kd: SPR, steady-state affinity model, 50 mM MES, 150 mM NaCl, 5% DMSO, pH 5.8
NLPPp [3] = target: T1, NLPPp; set-up: method as in doi:10.1016/j.pmpp.2010.06.003; conditions: cited from earlier work
BcNEP1 = test system: BcNEP1; set-up: method as in doi:10.1016/j.pmpp.2010.06.003; conditions: cited from earlier work

Structure (SMILES) | effect on NLPPp-induced necrosis (NLPPp [1]) | SPR binding to NLPPp (in words) (NLPPp [2]) | Kd (NLPPp [2]) | effect against NLPPp (NLPPp [3]) | effect on necrosis-inducing action of BcNEP1 (BcNEP1)
Cc1ccc2occ(C3N[C@H](C(=O)O)CS3)c(=O)c2c1 (stereo partly drawn) [6C3, (4R)-2-(6-methyl-4-oxo-4H-chromen-3-yl)thiazolidine-4-carboxylic acid] | inhibited | nonspecific binding |  |  | 
Cc1oc([C@@H](O)[C@H](O)[C@H](O)CO)cc1C(=O)O [6E11, 2-methyl-5-((1S,2R,3R)-1,2,3,4-tetrahydroxybutyl)furan-3-carboxylic acid, reference compound] | did not affect NLPPp cytotoxicity |  |  |  | 
COc1ccc(Nc2ccccc2C(=O)O)cc1 [6G7, 2-((4-methoxyphenyl)amino)benzoic acid] | inhibited |  | 71.9 ± 19.1 µM |  | 
O=C(Cc1c[nH]c2ccccc12)Nc1ccccc1CCOC(=O)Cc1c[nH]c2ccccc12 [7C8, 2-(2-(1H-indol-3-yl)acetamido)phenethyl 2-(1H-indol-3-yl)acetate] | inhibited |  | 40.5 µM and ~50 µM |  | 
O=C(N/N=C/c1ccc(O)c(O)c1)c1cc2ccccc2cc1O [dynasore] |  |  |  | ineffective | reduced
